Results taken from ChEMBL document CHEMBL1126082, “Nucleosides and nucleotides. 107. 2-(cycloalkylalkynyl)adenosines: adenosine A2 receptor agonists with potent antihypertensive effects” (J Med Chem, 1992).

How the values were obtained:
Rattus norvegicus [1] = test: Dose producing 30% decrease in blood pressure of anesthetized spontaneous hypertensive male rat(SHR); assay type: functional
Adenosine A2 receptor = Adenosine A2 receptor (Rattus norvegicus, UniProt P29276+P30543)
Description: Inhibition of [3H]NECA binding to adenosine A2 receptor from rat striatal membranes

Rattus norvegicus [2] = test: Dose producing 10% decrease in heart rate of anaesthetized spontaneous hypertensive male rat(SHR); assay type: functional
Adenosine receptor A1 = molecular target: T1, Adenosine receptor A1 (Rattus norvegicus, UniProt P25099); test: Inhibition of [3H]CHA binding to adenosine A1 receptor from rat brain membranes; assay type: cell membranes, Membrane
T1 sequence (P25099 whole entry): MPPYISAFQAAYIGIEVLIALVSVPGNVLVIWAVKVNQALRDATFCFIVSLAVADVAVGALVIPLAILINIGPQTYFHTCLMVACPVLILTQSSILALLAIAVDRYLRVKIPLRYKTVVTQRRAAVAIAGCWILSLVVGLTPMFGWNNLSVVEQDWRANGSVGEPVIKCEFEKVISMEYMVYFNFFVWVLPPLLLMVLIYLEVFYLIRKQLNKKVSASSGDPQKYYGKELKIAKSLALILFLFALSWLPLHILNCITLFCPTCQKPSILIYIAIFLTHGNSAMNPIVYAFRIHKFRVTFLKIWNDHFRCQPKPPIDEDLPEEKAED

Row | SMILES | ED30 (Rattus norvegicus [1]) [µg/kg] | Ki (Adenosine A2 receptor) [nM] | ED10 (Rattus norvegicus [2]) [µg/kg] | Ki (Adenosine receptor A1) [nM]
1 | Nc1nc(C#CCC2CCCC2)nc2c1ncn2[C@@H]1O[C@H](CO)[C@@H](O)[C@H]1O | 0.05 | 2.3 | > 100 | 
2 | COc1cc(OC)cc(C(CNc2ncnc3c2ncn3[C@@H]2O[C@H](CO)[C@@H](O)[C@H]2O)c2ccccc2C)c1 (stereo not given in full) |  | 6.9 | > 100 | 108
3 | Nc1nc(C#CC2CCCCC2)nc2c1ncn2C1O[C@H](CO)[C@@H](O)[C@H]1O (stereo not given in full) | 0.36 | 10 | > 100 | 138
4 | Nc1nc(C#Cc2ccccc2)nc2c1ncn2[C@@H]1O[C@H](CO)[C@@H](O)[C@H]1O | 10.1 | 109 | > 100 | 701
5 | Nc1nc(C#CCCC2CCCCC2)nc2c1ncn2C1O[C@H](CO)[C@@H](O)[C@H]1O (stereo not given in full) | 0.48 | 26 | > 100 | 313
6 | Nc1nc(C#CCCc2ccccc2)nc2c1ncn2[C@@H]1O[C@H](CO)[C@@H](O)[C@H]1O | 1.21 | 37 | > 100 | 400
7 | Nc1nc(C#CC2(O)CCCCCC2)nc2c1ncn2[C@@H]1O[C@H](CO)[C@@H](O)[C@H]1O | 0.02 | 1.1 | 5.6 | 27
8 | Nc1nc(C#CCO)nc2c1ncn2[C@@H]1O[C@H](CO)[C@@H](O)[C@H]1O | 0.36 | 20 | 0.74 | 8.3
9 | Nc1nc(C#CC(O)c2ccccc2)nc2c1ncn2[C@@H]1O[C@H](CO)[C@@H](O)[C@H]1O (stereo not given in full) | 0.05 | 1.9 | 1.3 | 3.4
10 | CCCC(O)C#Cc1nc(N)c2ncn(C3O[C@H](CO)[C@@H](O)[C@H]3O)c2n1 (stereo not given in full) | 0.04 | 1.8 | 0.83 | 16
11 | Nc1nc(C#CC2(O)CCCCCCC2)nc2c1ncn2[C@@H]1O[C@H](CO)[C@@H](O)[C@H]1O | 0.01 |  | 13 | 
12 | CCCCCCC#Cc1nc(N)c2ncn([C@@H]3O[C@H](CO)[C@@H](O)[C@H]3O)c2n1 | 0.2 | 7.9 | > 100 | 133
13 | Nc1nc(C#CCCCC2CCCCC2)nc2c1ncn2C1O[C@H](CO)[C@@H](O)[C@H]1O (stereo not given in full) | 1.64 | 46 | > 100 | > 229
14 | Nc1nc(C#CCCC2CCCC2)nc2c1ncn2C1O[C@H](CO)[C@@H](O)[C@H]1O (stereo not given in full) | 0.16 | 3.4 | > 100 | 136
15 | CCNC(=O)[C@H]1O[C@@H](n2cnc3c(N)nc(NCCc4ccc(CCC(=O)O)cc4)nc32)[C@H](O)[C@@H]1O [CGS-21680] | 0.97 |  | > 100 | 
16 | Nc1nc(C#CC2CCCC2)nc2c1ncn2[C@@H]1O[C@H](CO)[C@@H](O)[C@H]1O | 0.29 | 12 | > 100 | 88
17 | Nc1nc(C#CC2(O)CCCCC2)nc2c1ncn2[C@@H]1O[C@H](CO)[C@@H](O)[C@H]1O | 0.02 |  | 3.5 | 
18 | CCCCC#Cc1nc(N)c2ncn([C@@H]3O[C@H](CO)[C@@H](O)[C@H]3O)c2n1 | 0.11 |  | 67 | 
19 | CCCCCC(O)C#Cc1nc(N)c2ncn(C3O[C@H](CO)[C@@H](O)[C@H]3O)c2n1 (stereo not given in full) | 0.06 | 2 | 0.45 | 11
20 | CC(O)C#Cc1nc(N)c2ncn([C@@H]3O[C@H](CO)[C@@H](O)[C@H]3O)c2n1 (stereo not given in full) | 0.15 | 18 | 0.8 | 15
21 | CC(C)(O)C#Cc1nc(N)c2ncn([C@@H]3O[C@H](CO)[C@@H](O)[C@H]3O)c2n1 | 0.14 | 19 | 1.4 | 32
22 | Nc1nc(C#CCC2CCCCC2)nc2c1ncn2C1O[C@H](CO)[C@@H](O)[C@H]1O (stereo not given in full) | 0.15 |  | > 100 | 
23 | Nc1nc(C#CC2(O)CCCC2)nc2c1ncn2C1O[C@H](CO)[C@@H](O)[C@H]1O (stereo not given in full) | 0.07 | 3.3 | 1.6 | 11
